Source: patent US4730006A, “Derivatives of 2,6-diamino-3-haloheptanedioic acid” (Merrell Dow Pharmaceuticals Inc., priority 1986, dated 1988)
Values after ≈ are worked out from the molar mass of the structure shown. Structures can show the parent of a compound that is named as a salt. Where two headings read alike, the source gives them in different places.

How the values were obtained:
[1] = molecular target: T1, Escherichia coli DAP-epimerase (E.C. 5.1.1.7) (Escherichia coli, UniProt P0A6K1); assay: Inhibition of Escherichia coli DAP-epimerase (E.C. 5.1.1.7); format: biochemical, Escherichia coli (PR7)
T1 construct: endogenous in cells; host or cells: E. coli PR7; Endogenous enzyme purified by ammonium sulfate 30-45%, DE52 and Matrix green A dye-ligand column
T1 sequence (P0A6K1 whole entry): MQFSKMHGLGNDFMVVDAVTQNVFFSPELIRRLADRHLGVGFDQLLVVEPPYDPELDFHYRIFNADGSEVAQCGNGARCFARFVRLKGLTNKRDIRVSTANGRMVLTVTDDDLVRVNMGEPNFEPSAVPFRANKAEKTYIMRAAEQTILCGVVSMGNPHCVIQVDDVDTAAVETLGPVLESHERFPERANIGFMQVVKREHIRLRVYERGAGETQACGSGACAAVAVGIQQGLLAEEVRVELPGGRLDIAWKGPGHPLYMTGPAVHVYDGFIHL
Method: Strains were inoculated into Nutrient bath (5 ml) and grown up overnight (16 hours) at 37° C. Small amounts of cells were obtained in shake flask cultures (50 ml-1000 ml) obtained by innoculating Igarashi medium (Igarashi et al., 1979), with 2% of the starter culture. Cells were harvested at late-log (OD 540 nm 0,7-0,8) and rinsed before storage at -20° C. Larger amounts of cells were obtained using an overnight culture (Igarashi medium) of 2,5 l as innoculum for 80 l of Igarashi medium in a Biolaffite Fermenter. Cells were harvested in late-log (OD 540 nm 2.0) using a filtration system for cell concentration (40 fold) followed by centrifugation.
Cells from E. Coli (PR7), usually in batches of 40 g, were suspended in 100 ml buffer A (20 mM potassium phosphate 1 mM EDTA, 1 mM DTT, pH 7.0) by using the Ultraturrax apparatus (10 min). Passage through the French press (20,000 lbs/sq ins) and centrifugation 30,000 xg for 20 min gave the S30 crude extract. The supernatent was fractionated by adding solid ammonium sulfate to 30%, centrifugation was followed by further ammonium sulfate to 45%. The precipitated protein was dissolved in buffer to give a final volume of 10 ml which was dialysed overnight against 2,000 ml of buffer A.
The dialysed crude enzyme preparation was applied to a DEAE-cellulose column (2.3×49 cms) DES52, equilibrated with buffer A. The column was washed with 250 ml of buffer A and eluted with a linear gradiant formed by adding 250 ml of buffer A containing 0,22M KCl to 250 ml of buffer A. The flow rate was 25 ml/hr and 10 ml fractions were collected. DAP-epimerase eluted near the end of the gradiant at approximately 0,20M KCl. Pooled fractions containing DAPepimerase activity were dialysed overnight against 2,000 ml buffer A. Enzyme was concentrated by applying the dialysate to a smal DES52 column (0.9×10 cms), rinsing with 50 ml of buffer A and eluting with buffer A containing 0,50M KCl. The flow-rate was 20 ml/hr and 2,5 ml fractions were collected. Enzyme activity eluted immediately and pooled fractions were dialized against 1,000 ml buffer A.
A final purification step was obtained by applying the concentrated dialysed enzyme to a dye ligand column (1,4×5 cms), Matrix green A, rinsing with 50 ml buffer A and then eluting with 50 ml of buffer A containing 1,2M […] collecting 5 ml fractions. Pooled fractions were dialysed and concentrated on a small DE52 as described above.
(§1) DAP-epimerase activity was routinely measured at 25° C. Reaction mixtures contained 0.1M Tris HCl (pH 7,8), 1 mH EDTA, 1 mM DTT and […] of [G-^3 H]DAP in a total volume of 0.10 ml. After incubation for 40 min, reaction mixtures were quenched with 0.5 ml of 10% TCA and applied to 1 ml of AG50×4 ion-exchange resin (H' form) contained in a column (about 0.4×2 cms) fashioned from a blue pipette cone. The column was washed with 3×0.5 ml of water and the combined eluants counted for radioactivity.
(§2) In vitro DAP-epimerase, purified as described above, was incubated at 25° C. with various concentrations of δ-fluoro-ε-carboxylysine (usually 0, 10, 20, 40, 80 and […]) as described in the enzyme assay above.
*Values determined by Dixon plots (Ref. Dixon, M., 1972).

E. coli (PR7) = assay: MIC, serial dilutions in plates, E. coli; format: cell-based; conditions: Escherichia coli
Method: (§3) The antibacterial spectrum and minimal inhibitory concentration (MIC) of typical compounds of the present invention are determined by one or more standard techniques. Thus, for example, serial dilutions of the compound being tested are made in tubes of rich medium containing no peptide […] (Atherton et al., 1979) or in plates containing the same medium plus agar. Series of tubes or plates of agar containing different concentrations of the test compound are inoculated with the cultures utilized to determine activity. After incubation for 24 hours at 37° C., the inoculated tubes or agar plates are examined for the inhibition of bacterial growth and an MIC is determined therefrom.
(§4) The following example illustrates the in vitro activity of the compounds of this invention against a variety of pathogenic organisms.
(§5) *Serial dilutions in plates as described by Atherton et al. (1979).

A. aerogenes (62.1) = assay: MIC, serial dilutions in plates, A. aerogenes; format: cell-based; conditions: Klebsiella aerogenes
Method: as §3, §4, §5

[2] = system: P. aerogerosa (ATCC 25619); assay: MIC, serial dilutions in plates, P. aerogerosa; format: cell-based
Method: as §3, §4, §5

[3] = system: S. marcescens (ATCC 8100); assay: MIC, serial dilutions in plates, S. marcescens; format: cell-based; conditions: Serratia marcescens, ATCC8100
Method: as §3, §4, §5

[4] = In vivo studies: serum levels in mice by bioassay; design: species or system CFW mice; conditions: for Serum half-life: mice
Method: Groups of 3 fasted CFW mice (20 g±2) were dosed subcutaneously with 20, 50 or 100 mg/kg or orally with 50 or 100 mg/kg of δ-fluoro-ε-carboxylysyl-L-alanyl-L-alanine. At intervals of from 10 min to 210 min, after dosing animals were anesthetised with ether, and heparinized blood samples obtained by eye-puncture. Samples were kept on ice and the plasma removed. After dilution (1:1) with saline, aliquots were assayed for δ-fluoro-ε-carboxylysyl-L-alanyl-alanine by bioassay.
The antibacterial activity of δ-fluoro-ε-carboxylysyl-L-alanyl-alanine was determined by plate assay on "Roche" agar medium (adjusted to pH 6,5-see Atherton et al. (1979) using Aerobacter aerogenes as the test strain. Standard solutions of δ-fluoro-ε-carboxylysyl-L-alanyl-alanine were prepared by suitable dilutions in water (from the same solution used for injection) and 0,4 μg to 7,0 μg were applied to sterile discs (9 mm dia.) concomittently with serum samples. After overnight incubation at 37° C., zones of inhibition were measured across two diameters. A standard plot of zone diameter vs log. concentration of standards was prepared. The average serum concentration of δ-fluoro-ε-carboxylysyl-L-alanyl-alanine from 3 mice was taken from this standard plot. Control serum had no activity and 50% serum had no effect on the standard plot.

[5] = molecular target: T2, DAP-epimerase (EC 5.1.1.7) (Pseudomonas aeruginosa, UniProt Q51564); assay: Inhibition of DAP-epimerase partially purified from Pseudomonas aerogenosa; format: biochemical, Pseudomonas aerogenosa (ATCC 25619); conditions: enzyme partially purified from P. aerogerosa (ATCC 25619) through to the first DE52 column
T2 construct: **DAPepimerase was partially purified from each organism as described; endogenous in cells; host or cells: Pseudomonas aeruginosa ATCC 25619; Purified through the first DE52 column
T2 sequence (Q51564 1-276): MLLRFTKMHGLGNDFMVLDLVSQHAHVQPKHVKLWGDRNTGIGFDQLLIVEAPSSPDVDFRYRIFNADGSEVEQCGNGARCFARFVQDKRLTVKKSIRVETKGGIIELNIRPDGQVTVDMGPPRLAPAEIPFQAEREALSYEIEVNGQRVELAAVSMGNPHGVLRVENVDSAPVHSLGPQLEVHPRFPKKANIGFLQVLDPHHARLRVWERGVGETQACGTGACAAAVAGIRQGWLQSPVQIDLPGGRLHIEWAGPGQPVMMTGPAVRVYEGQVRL
Method: as §1, §2
(§6) **DAPepimerase was partially purified from each organism as described
(§7) (Example VII) through to the first DE52 column except that with Aerobacte

[6] = molecular target: T3, DAP-epimerase (EC 5.1.1.7) (Serratia marcescens, UniProt A0A0G3SSC4); assay: Inhibition of DAP-epimerase partially purified from Serratia marcescens; format: biochemical, Serratia marcescens (ATCC 8100); conditions: enzyme partially purified from S. marcescens (ATCC 8100) through to the first DE52 column
T3 sequence (A0A0G3SSC4 1-274): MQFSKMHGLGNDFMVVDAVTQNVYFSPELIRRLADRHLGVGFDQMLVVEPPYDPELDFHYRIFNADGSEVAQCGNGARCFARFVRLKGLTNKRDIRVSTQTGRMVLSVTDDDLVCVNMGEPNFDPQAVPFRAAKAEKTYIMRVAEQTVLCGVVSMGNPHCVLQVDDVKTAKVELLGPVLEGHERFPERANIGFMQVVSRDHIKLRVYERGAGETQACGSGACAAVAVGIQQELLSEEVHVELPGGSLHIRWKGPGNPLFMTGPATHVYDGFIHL
Method: as §1, §2, §6, §7

Row | Structure (SMILES) | Ki [1] | MIC (E. coli (PR7)) | MIC (A. aerogenes (62.1)) | MIC [2] | MIC [3] | other results
1 | NC(CCC(F)(F)C(N)C(=O)O)C(=O)O (stereo not drawn) [δ,δ-difluoro-ε-carboxylysine, 1,5-diamino-2,2-difluoro-1,5-pentanedicarboxylic acid, dihydrochloride] | – | – | – | – | – | IC50 ([1]; purified E. coli DAP-epimerase, 25° C., read-out: IC50): 50 µM
2 | NC(CCC(Cl)C(N)C(=O)O)C(=O)O (stereo not drawn) [δ-chloro-ε-carboxylysine, 1,5-diamino-2-chloro-1,5-pentanedicarboxylic acid, dihydrochloride] | 0.5 µM | – | – | – | – | –
3 | C[C@H](NC(=O)[C@H](C)NC(=O)[C@@H](N)CCC(F)C(N)C(=O)O)C(=O)O (stereo partly drawn) [δ-FLUORO-ε-CARBOXYLYSYL-L-ALANYL-L-ALANINE] | – | 12.5 µg/mL (≈ 35.7 µM) | 12.5 µg/mL (≈ 35.7 µM) | 100 µg/mL (≈ 285 µM) | 0.2 µg/mL (≈ 0.571 µM) | Serum half-life ([4]; P.O. (printed on the 50 mg/kg line)): 1.07 h; Serum half-life ([4]; S.C. (printed on the 50 mg/kg line)): 1.2 h; Serum levels compared with minimum inhibition concentrations of infectious microorganisms ([4]; mouse, in vivo): consistently above the minimum inhibition concentrations
4 | NC(CCC(F)C(N)C(=O)O)C(=O)O (stereo not drawn) [δ-fluoro-ε-carboxylysine, 3-fluoro-2,6-diaminopimelic acid] | 7.7 µM | – | – | – | – | IC50 [1]: 1.35 µM; Inhibition after aliquots were removed and diluted 50-fold with the assay medium ([1]; in vitro, enzyme incubated with inhibitor at 25° C., then diluted 50-fold): no inhibition was observed; Ki [5]: 5.4 µM; Ki [6]: 1 µM
5 | C[C@H](NC(=O)[C@@H](N)CCC(F)C(N)C(=O)O)C(=O)O (stereo partly drawn) [δ-fluoro-ε-carboxylysylalanine, δ-Fluoro-ε-carboxylysyl-L-alanine] | – | 12.5 µg/mL (≈ 44.8 µM) | 6 µg/mL (≈ 21.5 µM) | 0.8 µg/mL (≈ 2.86 µM) | 0.2 µg/mL (≈ 0.716 µM) | –
